Reference: patent US8057829B2, “Methods for repelling insects using sesquiterpene hydrocarbons and their derivatives” (Sterling International Inc., priority 2008, dated 2011)

Legend:
[1] = tested on: antennae of housefly, sand fly, and mosquitoes Aedes aegypti, Anopheles gambiae, Anopheles stephensi; assay: GC-EAD antennal responses to SPME samples of clove essential oil; settings: component of clove essential oil SPME sample; response by one or more of the insects; FIG. 1
Method: The GC-EAD antennal response of a female housefly (Musca domestica), sand fly (Phlebotomus papatasi), and mosquitoes including the species Aedes aegypti, Anopheles gambiae, and Anopheles stephensi were tested with clove essential oil. FIG. 1 is a simultaneous recording of GC flame ionization detection (FID) and electroantennographic detection (EAD) of the insect antennae to solid phase microextraction (SPME: CAR/PDMS) samples of clove essential oil in a 20 ml glass vial for 20 sec.
(§1) The following procedures were employed to test the EAD response of an insect antenna to a repellent compound. The GC-EAD technique provides an efficient tool for screening behaviorally active repellents. Several synthetic mixtures of potential insect repellent candidates, mostly sesquiterpene hydrocarbons and derivatives, were analyzed in splitless mode using a Varian CP-3800 GC equipped with a polar column (Innowax; 1.0 μm film thickness, 30 m×0.53 mm ID; J & W Scientific), and a 1:1 effluent splitter that allowed simultaneous flame ionization detection (FID) and EAD of the separated volatile compounds. Helium was used as the carrier gas, and the injector temperature was 220° C. The column temperature was 50° C. for 2 min, rising to 240° C. at 10° C./min, then held for 10 min. The outlet for the EAD was held in a humidified air stream flowing at 0.5 liter/min. over an antennal preparation. A glass capillary indifferent electrode filled with Beadle-Ephrussi Ringer, and grounded via a silver wire, was inserted into the severed insect's head with the antennae. A similar recording electrode connected to a high-impedance DC amplifier with automatic baseline drift compensation was placed in contact with the distal end of one antenna (Zhang et al., Chemoecology, 10:69-80 (2000)). The antennal signals were stored and analyzed on a PC equipped with a serial IDAC interface box and the program EAD ver. 2.5 (Syntech, Hilversum, The Netherlands). The compound 1-octen-3-ol (known attractant for many flies and mosquitoes) was included in most of the synthetic mixtures, as a positive control. […]

[2] = tested on: antennae of housefly, sand fly, and mosquitoes (Aedes aegypti, Aedes increpitus, Anopheles gambiae); assay: GC-EAD antennal responses to SPME samples of patchouli essential oil; settings: component of patchouli essential oil SPME sample; response by one or more of the insects; FIG. 2
Method: (§2) The following procedures were employed to test the EAD response of an insect antenna to a repellent compound. The GC-EAD technique provides an efficient tool for screening behaviorally active repellents. Several synthetic mixtures of potential insect repellent candidates, mostly sesquiterpene hydrocarbons and derivatives, were analyzed in splitless mode using a Varian CP-3800 GC equipped with a polar column (Innowax; 1.0 μm film thickness, 30 m×0.53 mm ID; J & W Scientific), and a 1:1 effluent splitter that allowed simultaneous flame ionization detection (FID) and EAD of the separated volatile compounds. Helium was used as the carrier gas, and the injector temperature was 220° C. The column temperature was 50° C. for 2 min, rising to 240° C. at 10° C./min, then held for 10 min. The outlet for the EAD was held in a humidified air stream flowing at 0.5 liter/min. over an antennal preparation. A glass capillary indifferent electrode filled with Beadle-Ephrussi Ringer, and grounded via a silver wire, was inserted into the severed insect's head with the antennae. A similar recording electrode connected to a high-impedance DC amplifier with automatic baseline drift compensation was placed in contact with the distal end of one antenna (Zhang et al., Chemoecology, 10:69-80 (2000)). The antennal signals were stored and analyzed on a PC equipped with a serial IDAC interface box and the program EAD ver. 2.5 (Syntech, Hilversum, The Netherlands). The compound 1-octen-3-ol (known attractant for many flies and mosquitoes) was included in most of the synthetic mixtures, as a positive control.

[3] = tested on: male false stable fly Muscina stabulans antenna and female mosquito Aedes (Ochlerotatus) increpitus Dyar antenna; assay: GC-EAD responses of false stable fly and Aedes increpitus to a synthetic mixture; settings: about 100 ng of each compound, FIG. 5
Method: The GC-EAD responses of the male false stable fly Muscina stabulans antenna and the female mosquito Aedes (Ochlerotatus) increpitus Dyar antenna were tested on a synthetic mixture of linalool and two representative sesquiterpene hydrocarbons, β-caryophyllene and α-humulene, and one sesquiterpene oxide, β-caryophyllene oxide, with about 100 ng of each compound in the mixture.
as §2, with “control. The results of the experiments are shown in FIGS. 1-10 and described above.” for “control.”

[4] = tested on: antennae of Musca domestica, Lucillia sericata, Sarcophaga sp., Muscina stabulans, Culex pipiens, Aedes increpitus; assay: GC-EAD responses of several flies and two mosquitoes to a synthetic mixture; settings: about 100 ng of each compound, FIG. 6
Method: The GC-EAD responses of several species of flies and two species of mosquito antennae were tested on a synthetic mixture of 1-octen-3-ol, linalool, two representative sesquiterpene hydrocarbons, β-caryophyllene and α-humulene, ZE-nepetalactone, EZ-nepetalactone, and two known insect repellents, DEET, and SS220, with about 100 ng of each compound in the mixture. DEET and SS220 are used as positive controls in the experiment. The compound 1-octen-3-ol is a known attractant for the insects and is also used as a positive control. The insects tested are species of Musca domestica, Lucillia sericata, Sarcophaga sp., Muscina stabulans, Culex pipiens, and Aedes increpitus.
as §1, with “ver.” for “ver. 2.5 (Syntech, Hilversum, The Netherlands). The compound 1-octen-3-ol (known attractant for many flies and mosquitoes) was included in most of the synthetic mixtures, as a positive control.”

houseflies = assay: Laboratory sticky trap bioassay of spatial repellency with egg powder attractant; type: in vivo, housefly (Musca domestica); settings: for female house flies per trap / male house flies per trap: egg powder plus repellent; for repellency against houseflies, in words: laboratory trap bioassay with egg powder attractant
Method: Laboratory bioassay tests were carried out to investigate the efficacy of some of the EAD-active compounds described above to act as spatial repellents against several insects. The procedure for the bioassay tests is described in Example 2 below. Briefly stated, the bioassay included using egg powder (EP) as an attractant for flies, while the compound whose insect repellency was being tested was placed in proximity to the egg powder. In FIGS. 11-13, the bioassay was carried out on houseflies using devices known by the designation Trécé Pherocon® VI sticky traps.
The following lab bioassay tests were employed to illustrate the efficacy of the compounds to effectively act as spatial repellents for flies. Three sets of tests were conducted in a fly testing room (23° C., 70% RH, and 12/12 (L/D) light regime illuminated by fluorescent lights). Two sets of tests were carried out using Trécé Pherocon® VI traps with sticky inserts, which were set up on poles evenly spaced on a rotating table. The traps were ca. 1 m above a table surface, and ca. 1 m apart from each other. Two grams of egg powder in a white cap (4 cm in diameter, 0.5 cm in height) used as an attractant was put on the center of the sticky insert in the sticky trap. The potential repellent candidate chemicals were loaded into polyethylene bags, and were hung under the inner roof of the traps, 1-1.5 cm above the egg powder attractant. A control had the empty white cap and blank polyethylene bag, while the positive control had only the egg powder and an empty polyethylene bag. The test table was rotated 1.5 r.p.h. […] About 200-300 houseflies (2-3 days old) were released into the testing room for each test. Tests were normally run from 8:00 am to 5:00 pm, and the numbers of houseflies caught in each trap were counted after each test. The results of these tests are shown in FIGS. 11-13 and described above.

[5] = FIG. 12, egg powder alone 35 females
[6] = FIG. 12, egg powder alone 68 males
[7] = FIG. 13, egg powder alone 76 females
[8] = FIG. 13, egg powder alone 95 males

Structure (SMILES) | GC-EAD antennal activity [1] | GC-EAD antennal activity [2] | GC-EAD antennal activity [3] | GC-EAD antennal activity [4] | number of house flies per trap (houseflies; egg powder attractant plus repellent, FIG. 11, egg powder alone 44) [house flies per trap] | female house flies per trap (houseflies; [5]) [house flies per trap] | male house flies per trap (houseflies; [6]) | female house flies per trap (houseflies; [7]) [house flies per trap] | male house flies per trap (houseflies; [8]) | repellency against houseflies, in words (houseflies)
C=C1CC/C=C(\C)CC[C@@H]2[C@@H]1CC2(C)C [β-Caryophyllene, β-caryophyllene] | EAD-active | elicited EAD-activity | active on at least one of the insects tested | active on at least one of the insects tested | 3.5 | 12 | six | 10 | two | effective housefly repellents
C=C1C2CCC3[C@H]2C(C)(C)CCC[C@]13C (single isomer, unassigned; (+)) [(+)-Longifolene] | – | – | – | – | – | – | – | 4 | one | strongest repellent against houseflies
C=C1CC/C=C(/C)CC[C@@H]2[C@@H]1CC2(C)C [Isocaryophyllene, isocaryophyllene] | – | – | – | – | – | 15 | 14 house flies per trap | – | – | –
